In ChEMBL document CHEMBL2331142, “Synthesis of new triazole acetamides with inotropic effects” (Bioorg Med Chem Lett, 2013) one finds Activity and Ratio data, which are given here for 24 compounds.

The species entered for series [1] is Oryctolagus cuniculus. Description: (§1) Positive inotropic effect in rabbit left atrium assessed as increase in stroke volume at 3 x 10^-5 M measured for 2 mins relative to control. It counts as functional. Particulars: Cardiac atrium.
Series [2] in a line: as §1. It counts as functional, Oryctolagus cuniculus, Cardiac atrium.
For series [3], the species on record is Oryctolagus cuniculus. Description: Chronotropic effect in rabbit heart assessed as change in heart rate at 3 x 10^-5 M by electrocardiogram analysis relative to control. As to conditions: in vivo, 30 µM. It is filed as ADME, organism-based.
The species named for series [4] is Oryctolagus cuniculus. Description: Positive inotropic effect in rabbit left atrium assessed as increase in stroke volume at 1 x 10^-4 M measured for 2 mins. It is filed as functional, tissue-based. Particulars: Cardiac atrium.
Series [5] in a line: Ratio of compound activity to milrinone activity for increase in stroke volume in rabbit left atrium at 3 x 10^-5 M. It is filed as functional, Oryctolagus cuniculus, Cardiac atrium.

Activity calls are given as the source filed them. No cut-off for these calls is given here.

Regarding `O=C(CN1CCN(Cc2ccc(Cl)c(Cl)c2)CC1)Nc1ccc2c(c1)CCc1nnc(-c3cccc(Cl)c3)n1-2`, the result in series [1] was inactive.
For the compound `Cc1[nH]c(=O)c(C#N)cc1-c1ccncc1` [MILRINONE], in series [2], the Activity is on record as 2.46%.
Same read-out and setting: with `COc1ccc(CN2CCN(CC(=O)Nc3ccc4c(c3)CCc3nnc(-c5ccccc5Cl)n3-4)CC2)cc1` the figure was 9.12%.
Consider `CCCCCCN1CCN(CC(=O)Nc2ccc3c(c2)CCc2nnc(-c4cccc(Cl)c4)n2-3)CC1`, for which, in series [1], the outcome was inactive.
Turning to `O=C(CN1CCN(Cc2cccc(Cl)c2)CC1)Nc1ccc2c(c1)CCc1nnc(-c3cccc(Cl)c3)n1-2`, the figures for the Activity in series [2] and in series [3] were 15.75% and “Toxic”, respectively.
Turning to `O=C(CN1CCN(Cc2ccc(F)cc2)CC1)Nc1ccc2c(c1)CCc1nnc(-c3cccc(Cl)c3)n1-2`, the results for the Activity in series [2] and in series [3] were 16.49% and “Non-toxic”, respectively.
For `O=C(CN1CCN(Cc2ccccc2F)CC1)Nc1ccc2c(c1)CCc1nnc(-c3ccccc3Cl)n1-2`, the Activity in series [2] was determined as 2.39%.
For the compound `COc1ccc(CN2CCN(CC(=O)Nc3ccc4c(c3)CCc3nnc(-c5cccc(Cl)c5)n3-4)CC2)cc1`, the result in series [4] was Active. Also, the Activity was 16.84% in series [2] and “Non-toxic” in series [3].
With `O=C(CN1CCN(Cc2ccc(Cl)cc2)CC1)Nc1ccc2c(c1)CCc1nnc(-c3cccc(Cl)c3)n1-2`, in series [2], the Activity was determined as 7.22%.
With `CCCCCN1CCN(CC(=O)Nc2ccc3c(c2)CCc2nnc(-c4cccc(Cl)c4)n2-3)CC1`, the Activity in series [2] was found to be 0.8%.
As for `O=C(CN1CCN(Cc2cccc(Cl)c2)CC1)Nc1ccc2c(c1)CCc1nnc(-c3ccccc3Cl)n1-2`, the Activity in series [2] was 2.18%.
For the compound `O=C(CN1CCN(Cc2ccccc2Br)CC1)Nc1ccc2c(c1)CCc1nnc(-c3cccc(Cl)c3)n1-2`, the outcome in series [1] was inactive.
For the compound `O=C(CN1CCN(Cc2ccc(F)cc2)CC1)Nc1ccc2c(c1)CCc1nnc(-c3ccccc3Cl)n1-2`, in series [2], the Activity is listed as 4.58%.
With `CCCCN1CCN(CC(=O)Nc2ccc3c(c2)CCc2nnc(-c4cccc(Cl)c4)n2-3)CC1`, the Activity in series [2] worked out at 2.33%.
With `O=C(CN1CCN(Cc2ccccc2F)CC1)Nc1ccc2c(c1)CCc1nnc(-c3cccc(Cl)c3)n1-2`, in series [5], the Ratio is 8.2. In series [4], the result was Active. Besides, the values for the Activity in series [2] and in series [3] were 20.29% and “Non-toxic”, respectively.
As for `O=C(CN1CCN(Cc2ccc(Cl)cc2Cl)CC1)Nc1ccc2c(c1)CCc1nnc(-c3cccc(Cl)c3)n1-2`, the outcome in series [1] was inactive.
As to `O=C(CN1CCN(Cc2ccc(Br)cc2)CC1)Nc1ccc2c(c1)CCc1nnc(-c3cccc(Cl)c3)n1-2`, the Activity in series [2] was found to be 2.31%.
On the same count and under the same terms, as for `O=C(CN1CCN(Cc2ccccc2)CC1)Nc1ccc2c(c1)CCc1nnc(-c3cccc(Cl)c3)n1-2`, the figure is 8.07%.
For `O=C(CN1CCN(Cc2cccc(Br)c2)CC1)Nc1ccc2c(c1)CCc1nnc(-c3cccc(Cl)c3)n1-2`, the outcome in series [1] was inactive.
Same read-out and setting: as for `CCCCCCCCN1CCN(CC(=O)Nc2ccc3c(c2)CCc2nnc(-c4cccc(Cl)c4)n2-3)CC1`, the entry is “inactive”.
Turning to `O=C(CN1CCN(Cc2ccccc2Cl)CC1)Nc1ccc2c(c1)CCc1nnc(-c3cccc(Cl)c3)n1-2`, in series [2], the Activity was found to be 0.8%.
Consider `O=C(CN1CCN(Cc2ccccc2)CC1)Nc1ccc2c(c1)CCc1nnc(-c3ccccc3Cl)n1-2`, for which the Activity was 15.62% in series [2] and “Non-toxic” in series [3].
In the case of `Cc1ccc(CN2CCN(CC(=O)Nc3ccc4c(c3)CCc3nnc(-c5cccc(Cl)c5)n3-4)CC2)cc1`, the Activity in series [2] is given as 4.25%.
On the same count and under the same terms, with `O=C(CN1CCN(Cc2cccc(F)c2)CC1)Nc1ccc2c(c1)CCc1nnc(-c3cccc(Cl)c3)n1-2` the figure was 6.33%.
